According to PubChem BioAssay AID1117347 (Cheminformatics & Chemogenomics Research Group (CCRG), …, 2015):
Several values for one entry are separate records, joined by “and”; a condition that tells them apart may be missing. Identical values can stand only once. Activity calls are given as the source filed them. No rule for the calls is given here.

The compounds below were run on HeLa cell count decrease (assay: decrease in HeLa cell numbers, dose-response curve, cell enumeration, 50% inhibitory concentration (AID 1117347)).

Row | SMILES | IC50
1 | O=c1c(-c2ccccc2)c1-c1ccccc1 | 1690 nM
2 | CCC(=O)c1ccc(O)cc1 | > 10000 nM (inactive)
3 | CC[C@H]1CN2CCc3cc(OC)c(OC)cc3[C@@H]2C[C@@H]1C[C@H]1NCCc2cc(OC)c(OC)cc21 | 32.7 nM
4 | CC(=O)Oc1ccccc1C(=O)Nc1ncc([N+](=O)[O-])s1 | > 10000 nM (inactive)
5 | COc1ccc(-c2nc3ccc(C4=NNC(=O)CC4C)cc3[nH]2)cc1 (stereo not given) | 7230 nM (inactive)
6 | CSc1ccc2c(c1)C(N1CCN(C)CC1)Cc1ccccc1S2 (stereo not given) | > 10000 nM (inactive)
7 | Cn1cnc([N+](=O)[O-])c1Sc1ncnc2nc[nH]c12 | > 10000 nM (inactive)
8 | Cc1nc2ccc(CN(C)c3ccc(C(=O)N[C@@H](CCC(=O)O)C(=O)O)s3)cc2c(=O)[nH]1 | > 10000 nM (inactive)
9 | CCCCCCCCCCCCCCCC[N+](C)(C)CCN(Cc1ccc(OC)cc1)c1ncccn1 | 349 nM
10 | C[C@]12CC[C@@H]3c4ccc(O)cc4CC[C@H]3[C@@H]1CC[C@@H]2OC(=O)CCC1CCCC1 | > 10000 nM (inactive)
11 | COc1ccc(/C=C/C(=O)c2ccc(OC)cc2OC)cc1 | 708 nM
12 | OC[C@H]1O[C@@H](n2cnc3c(=S)nc[nH]c32)[C@H](O)[C@@H]1O | > 10000 nM (inactive)
13 | CC(C)=CCC/C(C)=C/CC/C(C)=C/C(=O)OCC(=O)[C@@]1(O)CC[C@H]2[C@@H]3CCC4=CC(=O)C=C[C@]4(C)[C@H]3[C@@H](O)C[C@@]21C | 59.5 nM
14 | COc1cc(NCc2ccc3nc(N)nc(N)c3c2C)cc(OC)c1OC | 3810 nM
15 | CCN1/C(=C/C=C/c2sc3ccccc3[n+]2CC)Sc2ccccc21 | 36 nM
16 | Nc1nc(F)nc2c1ncn2[C@@H]1O[C@H](CO)[C@@H](O)[C@@H]1O | > 10000 nM (inactive)
17 | COc1ccc(-c2ccc3cc(C(=O)O)ccc3c2)cc1C12CC3CC(CC(C3)C1)C2 | 5490 nM (inactive)
18 | Cc1ccc([N+](=O)[O-])[c]2c1[O][Hg]2 | 385 nM
19 | O=C(Nc1ccc(Br)cc1)c1cc(Br)cc(Br)c1O | > 10000 nM (inactive)
20 | CC[C@@]1(O)C(=O)OCc2c1cc1n(c2=O)Cc2cc3c(CN(C)C)c(O)ccc3nc2-1 | 9 nM
21 | Clc1ccc(Nc2nnc(Cc3ccncc3)c3ccccc23)cc1 | > 10000 nM (inactive)
22 | C[n+]1c2cc(N)ccc2cc2ccc(N)cc21 (tested in a mixture with another compound) | 472 nM
23 | Cc1cc(O)c2ccccc2c1O | 2460 nM
24 | Cc1ccc2nc(N)[nH]c(=O)c2c1Sc1ccncc1 | > 10000 nM (inactive)

Row | SMILES | IC50
25 | CCN(CC)CCNC(=O)c1c(C)[nH]c(/C=C2\C(=O)Nc3ccc(F)cc32)c1C | 1280 nM
26 | Cc1cc(CC(C)CC(C)(C)C)n(O)c(=O)c1 (stereo not given) | 133 nM
27 | CC(C)(C)C(=O)OCOP(=O)(COCCn1cnc2c(N)ncnc21)OCOC(=O)C(C)(C)C | 134 nM
28 | CC(=O)N(O)CCCCCNC(=O)CCC(=O)N(O)CCCCCNC(=O)CCC(=O)N(O)CCCCCN | > 10000 nM (inactive)
29 | CCN(CC)CCOc1ccc(/C(=C(\Cl)c2ccccc2)c2ccccc2)cc1 | > 10000 nM (inactive)
30 | COc1cc([C@@H]2c3cc4c(cc3[C@H](O)[C@H]3COC(=O)[C@H]23)OCO4)cc(OC)c1OC | 4.8 nM
31 | O=Cc1ccc(O)c(O)c1O | > 10000 nM (inactive)
32 | Oc1c(I)cc(Cl)c2cccnc12 | > 10000 nM (inactive)
33 | C[C@@H]1C[C@@H]([C@H](O)CC2CC(=O)NC(=O)C2)C(=O)[C@@H](C)C1 | 542 nM
34 | CCCCC(CC)CN=C(N)NC(N)=NCCCCCCN=C(N)NC(N)=NCC(CC)CCCC (stereo not given) | 18.6 nM
35 | O=C(Nc1ccc([N+](=O)[O-])cc1Cl)c1cc(Cl)ccc1O | 144 nM
36 | Cc1nc(N)nc(N)c1-c1ccc(Cl)c(Cl)c1 | 1010 nM
37 | CCCCCCCCCCCCCCCC[N+](C)(C)Cc1ccccc1 | > 10000 nM (inactive)
38 | NC(N)=NN=C(/C=C/c1ccc([N+](=O)[O-])o1)/C=C/c1ccc([N+](=O)[O-])o1 | > 10000 nM (inactive)
39 | CCC(C)(C)C(=O)O[C@H]1C[C@@H](C)C=C2C=C[C@H](C)[C@H](CC[C@@H]3C[C@@H](O)CC(=O)O3)[C@H]21 | > 10000 nM (inactive)
40 | Cc1cc(=O)c2c(O)c3c(O)cc(=O)c4c3c3c(cc(O)c1c23)C(C)(C)C=4O | 1000 nM
41 | Cc1ccccc1C(=O)Nc1ccc(C(=O)N2CCCC(N(C)C)c3ccccc32)cc1 (stereo not given) | 2910 nM
42 | CC[C@@]1(O)C(=O)OCc2c1cc1n(c2=O)Cc2c-1nc1ccccc1c2/C=N/OC(C)(C)C | 2.2 nM
43 | CCCCCCCCCCCCCCCCCCNC(=O)OC1CCN(C(=O)OC[C@H](COC(=O)N(Cc2cccc[n+]2CC)C(=O)c2ccccc2OC)OC)CC1 | 6140 nM (inactive)
44 | CN1CC[C@H](c2c(O)cc(O)c3c(=O)cc(-c4ccccc4Cl)oc23)[C@H](O)C1 | 21.2 nM
45 | Cc1ccccc1C(OCCN(C)C)c1ccccc1 (stereo not given) | > 10000 nM (inactive)
46 | CCOc1ccc2nc3cc(N)ccc3c(N)c2c1 | 2110 nM
47 | O=c1[nH]c(=O)n([C@H]2C[C@H](O)[C@@H](CO)O2)cc1I | > 10000 nM (inactive)
48 | COC(=O)Nc1nc2ccc(C(=O)c3ccccc3)cc2[nH]1 | 54.2 nM

Row | SMILES | IC50
49 | Nc1nc(Cl)nc2c1ncn2[C@@H]1O[C@H](CO)[C@@H](O)[C@@H]1F | 5.16 nM
50 | CC[C@H](C)C(=O)O[C@H]1C[C@@H](C)C=C2C=C[C@H](C)[C@H](CC[C@@H]3C[C@@H](O)CC(=O)O3)[C@H]21 | > 10000 nM (inactive)
51 | Nc1ccc2cc3ccc(N)cc3nc2c1 | 1340 nM
52 | CCN(CC)CCOc1ccccc1C(=O)CCc1ccccc1 | > 10000 nM (inactive)
53 | CCc1oc2ccccc2c1C(=O)c1cc(Br)c(O)c(Br)c1 | > 10000 nM (inactive)
54 | O=C(NOCC1CC1)c1ccc(F)c(F)c1Nc1ccc(I)cc1Cl | > 10000 nM (inactive)
55 | CCc1oc2ccccc2c1C(=O)c1cc(I)c(O)c(I)c1 | > 10000 nM (inactive)
56 | O=C1c2c(O)ccc(O)c2C(=O)c2c(NCCNCCO)ccc(NCCNCCO)c21 | 3.1 nM
57 | CCCCCCCCCCCC(=O)[O][Sn]([CH2]CCC)([CH2]CCC)[O]C(=O)CCCCCCCCCCC | > 10000 nM (inactive)
58 | Cc1ccc(CCn2c3c(c4cc(Cl)ccc42)CN(C)CC3)cn1 | > 10000 nM (inactive)
59 | CN1CCCC(CC2c3ccccc3Sc3ccccc32)C1 (stereo not given) | > 10000 nM (inactive)
60 | Cc1cc(N)c2ccccc2[n+]1CCCCCCCCCC[n+]1c(C)cc(N)c2ccccc21 | > 10000 nM (inactive)
61 | CN1CCC(Nc2ncc3ncnc(Nc4ccc(F)c(Cl)c4)c3n2)CC1 | > 10000 nM (inactive)
62 | O=C1[C@H]2CCCC[C@H]2C(=O)N1CCCCN1CCN(c2nsc3ccccc23)CC1 | > 10000 nM (inactive)
63 | CCCCCCCCCCCCCCCCNc1ccc(C(=O)O)cc1 | > 10000 nM (inactive)
64 | COCc1c(C(C)C)nc(C(C)C)c(/C=C/[C@@H](O)C[C@@H](O)CC(=O)O)c1-c1ccc(F)cc1 | > 10000 nM (inactive)
65 | CC[C@]1(O)C[C@@H]2CN(CCc3c([nH]c4ccccc34)[C@@](C(=O)OC)(c3cc4c(cc3OC)N(C)[C@H]3[C@@](O)(C(=O)OC)[C@H](OC(C)=O)[C@]5(CC)C=CCN6CC[C@]43[C@@H]65)C2)C1 | 5.21 nM and 2.6 nM
66 | Nc1nc(=S)c2[nH]cnc2[nH]1 | > 10000 nM (inactive)
67 | CN(C)c1ccc2nc3ccc(=[N+](C)C)cc-3sc2c1 | > 10000 nM (inactive)
68 | O=C1c2c(O)cccc2Cc2cccc(O)c21 | > 10000 nM (inactive)
69 | Nc1nc(=O)n([C@@H]2O[C@H](CO)[C@@H](O)[C@@H]2F)cc1I | 8500 nM (inactive)
70 | O=C(O)c1ccc(-n2nc(-c3ccccc3O)nc2-c2ccccc2O)cc1 | 5680 nM (inactive)
71 | CCN(CC)CCCC(C)Nc1c2ccc(Cl)cc2nc2ccc(OC)cc12 (stereo not given) | 1330 nM
72 | CC(CC1c2ccccc2CCc2ccccc21)CN(C)C (stereo not given) | > 10000 nM (inactive)

Row | SMILES | IC50
73 | Cc1ccc2c(c1)c1c3n2CCNC3CCC1 (stereo not given) | > 10000 nM (inactive)
74 | O[C@@H](CNC[C@H](O)[C@H]1CCc2cc(F)ccc2O1)[C@@H]1CCc2cc(F)ccc2O1 | 5560 nM (inactive)
75 | CO[C@@]12[C@H](COC(N)=O)C3=C(C(=O)C(C)=C(N)C3=O)N1C[C@@H]1N[C@@H]12 | 77.3 nM
76 | S=c1nc[nH]c2nc[nH]c12 | > 10000 nM (inactive)
77 | COc1cccc2c1C(=O)c1c(O)c3c(c(O)c1C2=O)C[C@@](O)(C(C)=O)C[C@@H]3O[C@H]1C[C@H](N)[C@H](O)[C@H](C)O1 | 8.05 nM
78 | O=C1C(I)=CC(=C(c2cc(I)c(O)c(I)c2)c2ccccc2C(=O)O)C=C1I | > 10000 nM (inactive)
79 | COCCOC(=O)C1=C(C)NC(C)=C(C(=O)OC/C=C/c2ccccc2)C1c1cccc([N+](=O)[O-])c1 (stereo not given) | > 10000 nM (inactive)
80 | CN(C)CCOC(c1ccccc1)c1ccc(Br)cc1 (stereo not given) | > 10000 nM (inactive)
81 | O=C(CCl)c1ccc(Cl)cc1Cl | 350 nM
82 | NCCCC[C@H](N[C@@H](CCc1ccccc1)C(=O)O)C(=O)N1CCC[C@H]1C(=O)O | > 10000 nM (inactive)
83 | COc1cc2c(c(OC)c1OC)-c1ccc(OC)c(=O)cc1[C@@H](NC(C)=O)CC2 | 1.88 nM
84 | Cc1ccc(Nc2nccc(N(C)c3ccc4c(C)n(C)nc4c3)n2)cc1S(N)(=O)=O | > 10000 nM (inactive)
85 | CCCOc1ccc2nc(NC(=O)OC)[nH]c2c1 | 46.7 nM
86 | CC(=O)[C@]1(O)Cc2c(O)c3c(c(O)c2[C@@H](O[C@H]2C[C@H](N)[C@H](O)[C@H](C)O2)C1)C(=O)c1ccccc1C3=O | 14.2 nM
87 | CCCCCCCCCCCCCCCC[n+]1ccccc1 | 404 nM
88 | Cc1cc(C2CCCCC2)n(O)c(=O)c1 | 569 nM
89 | NCCNc1ccc(NCCN)c2c1C(=O)c1ccncc1C2=O | 42.1 nM
90 | CCCCCCCCCCCCCC[N+](C)(C)C | 3320 nM
91 | CC[C@@H]([C@H](C)O)n1ncn(-c2ccc(N3CCN(c4ccc(OC[C@@H]5CO[C@@](Cn6cncn6)(c6ccc(F)cc6F)C5)cc4)CC3)cc2)c1=O | > 10000 nM (inactive)
92 | CC(C)n1c(/C=C/[C@@H](O)C[C@@H](O)CC(=O)O)c(-c2ccc(F)cc2)c2ccccc21 | > 10000 nM (inactive)
93 | CN(Cc1cnc2nc(N)nc(N)c2n1)c1ccc(C(=O)N[C@@H](CCC(=O)O)C(=O)O)cc1 | > 10000 nM (inactive)
94 | Cc1cc2c(C(C)C)c(O)c(O)c(C=O)c2c(O)c1-c1c(C)cc2c(C(C)C)c(O)c(O)c(C=O)c2c1O | 3710 nM
95 | CCCN(CCC)C(=O)C(CCC(=O)OCCCN1CCN(CCOC(=O)Cc2c(C)n(C(=O)c3ccc(Cl)cc3)c3ccc(OC)cc23)CC1)NC(=O)c1ccccc1 (stereo not given) | 5480 nM (inactive)
